Patent publication US20260285850A1, “SUBSTITUTED OXAZOLIDINONES AND IMIDAZOLINONES AS HERBICIDES” (FMC CORPORATION, priority 2023, published 2026)

Legend:
Assay type in all cases: in vivo
[1] = test system: ducksalad (Heteranthera limosa); experiment: Test B flooded paddy test, visual plant response rating 0-100; conditions: 250 g ai/ha, Flood, applied to paddy water, evaluated after 13 days
Method: (§1) Plant species in the flooded paddy test selected from barnyardgrass (Echinochloa crusgalli), ducksalad (Heteranthera limosa), rice (Oryza sativa), and sedge, umbrella (small-flower umbrella sedge, Cyperus difformis) were grown to the 2-leaf stage for testing. At time of treatment, test pots were flooded to 3 cm above the soil surface, treated by application of test compounds directly to the paddy water, and then maintained at that water depth for the duration of the test. Treated plants and controls were maintained in a greenhouse for 13 days, after which time all species were compared to controls and visually evaluated. […] A dash (-) response means no test result.

[2] = test system: sedge, umbrella (small-flower umbrella sedge, Cyperus difformis); experiment: as above; conditions: 250 g ai/ha, Flood, applied to paddy water, evaluated after 13 days
Method: as §1

[3] = test system: barnyardgrass (Echinochloa crusgalli); experiment: as above; conditions: 250 g ai/ha, Flood, applied to paddy water, evaluated after 13 days
Method: as §1

[4] = test system: rice (Oryza sativa); experiment: as above; conditions: 250 g ai/ha, Flood, applied to paddy water, evaluated after 13 days
Method: as §1

[5] = test system: ryegrass, Italian (italian ryegrass, Lolium multiflorum); experiment: Test A postemergence application, visual injury rating 0-100; conditions: 10 days
From the text: (§2) Seeds of plant species selected from barnyardgrass (Echinochloa crus-galli), blackgrass (Alopecurus myosuroides), corn (Zea mays), foxtail, giant (giant foxtail, Setaria faberi), green foxtail (Setaria viridis), goosegrass (Eleusine indica), kochia (Bassia scoparia), oat, wild (wild oat, Avena fatua), palmer (palmer amaranth, palmer pigweed, Amaranthus palmeri), ragweed (common ragweed, Ambrosia artemisiifolia), ryegrass, Italian (italian ryegrass, Lolium multiflorum), soybean (Glycine max) and wheat (Triticum aestivum) were planted into a blend of loam soil and sand and treated preemergence with a directed soil spray using test chemicals formulated in a non-phytotoxic solvent mixture which included a surfactant.
(§3) At the same time, plants selected from these crops and weed species and also galium (catchweed bedstraw, Galium aparine) and horseweed (Erigeron canadensis) were planted in pots containing the same blend of loam soil and sand and treated with postemergence applications of test chemicals formulated in the same manner. Plants ranged in height from 2 to 10 cm and were in the one- to two-leaf stage for the postemergence treatment. Treated plants and untreated controls were maintained in a greenhouse for 10 days, after which time all treated plants were compared to untreated controls and visually evaluated for injury. Plant response ratings, summarized in Table A, are based on a 0 to 100 scale where 0 is no effect and 100 is complete control. A dash (-) response means no test result.

[6] = test system: barnyardgrass (Echinochloa crus-galli); experiment: as above; conditions: 10 days
From the text: as §2, §3

[7] = test system: green foxtail (Setaria viridis); experiment: as above; conditions: 10 days
From the text: as §2, §3

[8] = test system: horseweed (Erigeron canadensis); experiment: as above; conditions: 10 days
From the text: as §2, §3

[9] = test system: soybean (Glycine max); experiment: as above; conditions: 10 days
From the text: as §2, §3

[10] = test system: kochia (Bassia scoparia); experiment: as above; conditions: 10 days
From the text: as §2, §3

[11] = test system: ragweed (common ragweed, Ambrosia artemisiifolia); experiment: as above; conditions: 10 days
From the text: as §2, §3

[12] = test system: oat, wild (wild oat, Avena fatua); experiment: as above; conditions: 10 days
From the text: as §2, §3

[13] = test system: wheat (Triticum aestivum); experiment: as above; conditions: 10 days
From the text: as §2, §3

[14] = test system: palmer (palmer amaranth, palmer pigweed, Amaranthus palmeri); experiment: as above; conditions: 10 days
From the text: as §2, §3

[15] = test system: blackgrass (Alopecurus myosuroides); experiment: as above; conditions: 10 days
From the text: as §2, §3

[16] = test system: corn (Zea mays); experiment: as above; conditions: 10 days
From the text: as §2, §3

[17] = test system: ryegrass, Italian (italian ryegrass, Lolium multiflorum); experiment: Test A preemergence soil spray, visual injury rating 0-100; conditions: 10 days, 0 = no effect, 100 = complete control
From the text: as §2, §3

[18] = test system: barnyardgrass (Echinochloa crus-galli); experiment: as above; conditions: 10 days, 0 = no effect, 100 = complete control
From the text: as §2, §3

[19] = test system: green foxtail (Setaria viridis); experiment: as above; conditions: 10 days, 0 = no effect, 100 = complete control
From the text: as §2, §3

[20] = test system: soybean (Glycine max); experiment: as above; conditions: 10 days, 0 = no effect, 100 = complete control
From the text: as §2, §3

[21] = test system: kochia (Bassia scoparia); experiment: as above; conditions: 10 days, 0 = no effect, 100 = complete control
From the text: as §2, §3

[22] = test system: ragweed (common ragweed, Ambrosia artemisiifolia); experiment: as above; conditions: 10 days, 0 = no effect, 100 = complete control
From the text: as §2, §3

[23] = test system: oat, wild (wild oat, Avena fatua); experiment: as above; conditions: 10 days, 0 = no effect, 100 = complete control
From the text: as §2, §3

[24] = test system: wheat (Triticum aestivum); experiment: as above; conditions: 10 days, 0 = no effect, 100 = complete control
From the text: as §2, §3

[25] = test system: palmer (palmer amaranth, palmer pigweed, Amaranthus palmeri); experiment: as above; conditions: 10 days, 0 = no effect, 100 = complete control
From the text: as §2, §3

[26] = test system: blackgrass (Alopecurus myosuroides); experiment: as above; conditions: 10 days, 0 = no effect, 100 = complete control
From the text: as §2, §3

[27] = test system: corn (Zea mays); experiment: as above; conditions: 10 days, 0 = no effect, 100 = complete control
From the text: as §2, §3

[28] = 31 g ai/ha, postemergence, 0 = no effect, 100 = complete control
[29] = Postemergence, 125 g ai/ha, 0 is no effect, 100 is complete control

COC(=O)C1=CC[C@H](NC(=O)C2(C)CN(c3cc(F)cc(F)c3)C(=O)O2)C1 (mixture of isomers) [Compound 37, Methyl (4S)-4-[[[3-(3,5-difluorophenyl)-5-methyl-2-oxo-5-oxazolidinyl]carbonyl]amino]-1-cyclopentene-1-carboxylate]
90: Ryegrass, Italian plant response rating (0 to 100 scale) [5, 29] | Foxtail, Green plant response rating (0-100) [7, 28] | Foxtail, Green plant response rating (0 to 100 scale) [7, 29] | Oat, Wild plant response rating (0-100) [12, 28] | Oat, Wild plant response rating (0 to 100 scale) [12, 29] | Wheat plant response rating (0-100) [13, 28] | Wheat plant response rating (0 to 100 scale) [13, 29] | Amaranth, Palmer / Pigweed, Palmer plant response rating (0 to 100 scale) [14, 29] | Blackgrass plant response rating (0 to 100 scale) [15, 29] | Ryegrass, Italian plant response rating (0 to 100 scale) ([17]; 125 g ai/ha) | Barnyardgrass plant response rating (0 to 100 scale) ([18]; 125 g ai/ha) | Foxtail, Green plant response rating (0 to 100 scale) ([19]; 125 g ai/ha)
65: Plant response rating, Rice (0 to 100 scale, 0 is no effect and 100 is complete control) [4]
20: Ragweed plant response rating (0-100) [11, 28] | Kochia plant response rating (0 to 100 scale) ([21]; 125 g ai/ha) | Oat, Wild plant response rating (0-100) ([23]; 31 g ai/ha) | Blackgrass plant response rating (0 to 100 scale) ([26]; 125 g ai/ha)
0: Foxtail, Green plant response rating (0-100) ([19]; 31 g ai/ha) | Kochia plant response rating (0-100) ([21]; 31 g ai/ha) | Ragweed plant response rating (0 to 100 scale) ([22]; 125 g ai/ha) | Blackgrass plant response rating (0-100) ([26]; 31 g ai/ha)
80: Ryegrass, Italian plant response rating (0-100) [5, 28] | Soybean plant response rating (0 to 100 scale) [9, 29] | Kochia plant response rating (0-100) [10, 28] | Kochia plant response rating (0 to 100 scale) [10, 29] | Blackgrass plant response rating (0-100) [15, 28] | Wheat plant response rating (0 to 100 scale) ([24]; 125 g ai/ha) | Amaranth, Palmer plant response rating (0 to 100 scale) ([25]; 125 g ai/ha) | Corn plant response rating (0 to 100 scale) ([27]; 125 g ai/ha)
95: Plant response rating, Ducksalad (0 to 100 scale, 0 is no effect and 100 is complete control) [1]
10: Horseweed plant response rating (0-100) [8, 28] | Soybean plant response rating (0-100) ([20]; 31 g ai/ha) | Amaranth, Palmer plant response rating (0-100) ([25]; 31 g ai/ha) | Corn plant response rating (0-100) ([27]; 31 g ai/ha)
75: Plant response rating, Barnyardgrass (0 to 100 scale, 0 is no effect and 100 is complete control) [3]
100: Plant response rating, Sedge, Umbrella (0 to 100 scale, 0 is no effect and 100 is complete control) [2] | Barnyardgrass plant response rating (0-100) [6, 28] | Barnyardgrass plant response rating (0 to 100 scale) [6, 29] | Corn plant response rating (0-100) [16, 28] | Corn plant response rating (0 to 100 scale) [16, 29]
70: Horseweed plant response rating (0 to 100 scale) [8, 29] | Soybean plant response rating (0-100) [9, 28] | Amaranth, Palmer plant response rating (0-100) [14, 28] | Ryegrass, Italian plant response rating (0-100) ([17]; 31 g ai/ha) | Soybean plant response rating (0 to 100 scale) ([20]; 125 g ai/ha)
40: Wheat plant response rating (0-100) ([24]; 31 g ai/ha)
60: Ragweed plant response rating (0-100) ([22]; 31 g ai/ha) | Oat, Wild plant response rating (0 to 100 scale) ([23]; 125 g ai/ha)
30: Barnyardgrass plant response rating (0-100) ([18]; 31 g ai/ha)
50: Ragweed plant response rating (0 to 100 scale) [11, 29]
